This is an account of results in patent US7122518B2, “Method for preventing or reducing collateral phototoxic damage to neighboring tissues during photodynamic therapy of a target tissue” (New York University, priority 2002, dated 2006).

One may read the cell viability as a read-out of living cells in per cent, often relative to untreated cells.

One series concerns ARPE cells. In words: Competitive quenching by hypericin versus DTHe in ARPE cells (Hemacolor viability). Particulars: for cell viability: 1.73 J/cm^2, Hemacolor after 24 hrs (FIG. 7A). As to the method: The cells were treated with the added dianthraquinone compounds for 3 hrs. and with added verteporfin for the last two hrs. The cells were then exposed to 1.73 J/cm^2 of light irradiation at >650 nm and cell viability monitored after 24 hrs. in culture.
(§1) For the Hemacolor assay the cells were fixed with methanol, stained with Hemacolor reagents (Merck, Darmstadt, Germany), the dye eluted and quantified in an ELISA reader at 650 nm. PDT efficacy was expressed as percentage of viable cells in treated wells relative to untreated controls, calculated as (OD650, treated/OD650, untreated)×100.
ARPE or EH endothelial hybridoma cells were seeded at 5×10^4 cells/well in 96 well flat bottom microplates. The cells were allowed to adhere overnight, after which time DTHe or hypericin were added to ARPE cells (FIG. 7A) or to endothelial hybridoma cells (FIG. 7B) at concentrations of 10 or 20 μg/ml and the cells incubated at 37° C. in complete darkness. After one hour incubation with hypericin, verteporfin at concentrations of 0.1, 0.25 and 0.5 μg/ml was added to the cultures, which were then incubated at 37° C. for two additional hours. The supernatants were removed, the cells washed with PBS and the cultures exposed to light irradiation at a dose of 1.73 J/cm^2 at 689 nm. The cultures were then incubated at 37° C. for an additional 24 hrs and cell viability was then determined via the hemacolor assay.

A short description of series [1]: Hypericin distribution among the layers of the retina after i.v. administration. As to the method:
Rats were sacrificed at 15 min, 2 hrs, 6 hrs and 8 hrs after i.v. administration of hypericin, 2 mg/kg. The eyes were enucleated and frozen initially at −80° C. and subsequently in liquid nitrogen and several cryostat sections (5-μm width) sliced from each sample. To prevent hypericin extraction from the retinal tissues during staining the histological tissue distribution of hypericin among the different layers of the retina was initially examined under an Olympus phase contrast and fluorescence microscope, and the data photographed with a computer-linked digital camera (Multipixel Spectral Imaging System, Applied Spectral Imaging Inc., Israel. Hypericin was excited at 477 nm and its fluorescence recorded by documenting emission intensity at 602 nm. The photographed locations were marked and the sections then stained with Hematoxylin-eosin (H&E) for confirmation of retinal layer identity and compared to the corresponding fluorescence and light microscopy images.
Hypericin at a dose of 2 mg/kg was administered to the tail vein. At 15 minutes, 2, 4, 6 and 8 hrs the rats were anesthesized, the eyes enucleated and frozen sections prepared. The sections were then analyzed by Multipixel Spectral Imaging.

In another series the test system is ARPE-19 cells. The series is described as follows: Protection of ARPE cells from verteporfin-induced phototoxicity (MTT viability). As to conditions: for viability at 20 µM: Homo sapiens, ARPE-19, light or radiation study. As to the method: ARPE or EH cells were plated in 96 well flat bottom microplates 2×10^4 cells/well. The cells were allowed to attach to the plate surface and hypericin was added to the cultures in complete darkness (ambient light kept below <0.03 mW/cm^2 to prevent hypericin-mediated phototoxicity) for time intervals ranging from 3–6 hrs. Verteporfin was then added and was present for the last two hours of the incubation period. At the end of incubation period, the growth medium containing hypericin and verteporfin was removed and replaced with phosphate buffered saline (PBS) and then photosensitized with red light using a fiber-optic non-coherent light delivery system (SeNet Ltd, Israel) in combination with K700 broadband interference filter with central wavelengths at 700 nm and half-height bandwidth of ±40 nm (Rolyn Optics, Covina, Calif.) to selectively excite verteporfin but not hypericin (excitable at 546 and 590 nm). […] The fluence rate (mW/cm^2) was measured with a Model IL 1400A radiometer/photometer (International Light Inc., Newburyport, Mass.).
Two methods have been used to monitor cell viability: the MTT assay which measures reduction of MTT to formasan by mitochondria of viable cells and by the Hemacolor assay, a calorimetric microtiter assay that quantifies the amount of dye that binds to viable adherent cells (Keisari, 1992). […] MTT was added to the cells following light irradiation and the plates were incubated for three hours and then analyzed in an ELISA reader at 560 nm. […]
In order to examine whether the red/ox properties of hypericin in the dark can impact on the phototoxic properties of verteporfin (VP), retinal pigmented epithelial cells (ARPE-19) in monolayer cultures were loaded with hypericin by exposure to 5, 10 and 20 μM of this compound for three and six hrs. […] Following irradiation, drug-free fresh medium was introduced, the cells incubated at 37° C. in a 5% CO2 incubator for additional 24 hrs and cell viability then monitored using the MTT assay.

The test system of the next series is EH endothelial cells. The series is described as follows: Protection of EH endothelial cells from verteporfin-induced phototoxicity (viability). As to conditions: for viability at 20 µM: Homo sapiens, Endothelial cell, light or radiation study. As to the method:
ARPE or EH cells were plated in 96 well flat bottom microplates 2×10^4 cells/well. The cells were allowed to attach to the plate surface and hypericin was added to the cultures in complete darkness (ambient light kept below <0.03 mW/cm^2 to prevent hypericin-mediated phototoxicity) for time intervals ranging from 3–6 hrs. Verteporfin was then added and was present for the last two hours of the incubation period. At the end of incubation period, the growth medium containing hypericin and verteporfin was removed and replaced with phosphate buffered saline (PBS) and then photosensitized with red light using a fiber-optic non-coherent light delivery system (SeNet Ltd, Israel) in combination with K700 broadband interference filter with central wavelengths at 700 nm and half-height bandwidth of ±40 nm (Rolyn Optics, Covina, Calif.) to selectively excite verteporfin but not hypericin (excitable at 546 and 590 nm). The cultures were then returned to standard growth medium, cultured for 24 hrs in a 37° C., 5% CO2 and cell viability then assayed by the MTT or Hemacolor assays. The fluence rate (mW/cm^2) was measured with a Model IL 1400A radiometer/photometer (International Light Inc., Newburyport, Mass.).
Two methods have been used to monitor cell viability: the MTT assay which measures reduction of MTT to formasan by mitochondria of viable cells and by the Hemacolor assay, a calorimetric microtiter assay that quantifies the amount of dye that binds to viable adherent cells (Keisari, 1992). The cells were plated in flat-bottomed 96 well plates in 200 μl medium containing the photosensitizer. MTT was added to the cells following light irradiation and the plates were incubated for three hours and then analyzed in an ELISA reader at 560 nm. Corrections were made for non-specific absorption of MTT subtracting background values generated in cell free blank wells containing medium and HY at each dose level and MTT.
as §1
EH cells were used for this purpose.

The conditions of series [2]: cited from earlier work.
Series [3] is described as follows: Biodistribution of hypericin in tissues of tumor-bearing mice (fluorescence). It is filed as in vivo. Particulars: BALB/c mice bearing breast adenocarcinoma tumors, preliminary (FIG. 5). As to the method:
The present inventor aimed to overcome this obstacle by using pharmacokinetic considerations. Hypericin is a lipophilic agent with an alpha half life of approximately 1–2 hours in the circulation. […] It is therefore possible to generate conditions in which hypericin has cleared from the circulation and concentrated in the tissues where it can be useful in protecting from collateral photodynamic damage.

The conditions of series [4]: in vivo, iv; cited from earlier work.
[5] abbreviates: verteporfin 0.25 μg/ml plus quencher 10 μg/ml.
Setting [6] is: verteporfin 0.25 μg/ml plus quencher 20 μg/ml.

“Also recorded” adds a separate entry of the source. Like-named read-outs stand apart in the source and are kept apart here.

As for `Cc1ccc2c(=O)c3c(O)cc(O)c4c5c(O)cc(O)c6c(=O)c7ccc(C)cc7c(c65)c(c2c1)c34` [DTHe, dimethyl tetrahydroxy helianthrone], the “competitive quenching of verteporfin-mediated phototoxicity relative to hypericin” value in the series on ARPE cells (ARPE cells, 10 and 20 μg/ml) was “much less effective”. Moreover, the cell viability with ARPE cells (setting [5]) is reported as 7.5%; in the series with ARPE cells (setting [6]) it was 6%.
Turning to `Cc1cc(O)c2c(=O)c3c(O)cc(O)c4c5c(O)cc(O)c6c(=O)c7c(O)cc(C)c8c1c2c(c34)c(c78)c65` [hypericin], the cell viability amounted to 35% with ARPE cells (setting [5]) and 32% in the series on ARPE cells (setting [6]). Moreover, the “retinal distribution of hypericin fluorescence” value in series [1] (15 minutes after 2 mg/kg i.v., rats (FIG. 6A)) was “confined to the choroidal blood vessels; also recorded: confined mainly to the vasculature”; in series [1] (2 hrs after 2 mg/kg i.v., rats (FIG. 6B)) it was “spreads to the entire retina; also recorded: extravasated to the surrounding tissue was less evident within the vasculature and spread through the choroid”; in series [1] (6 hrs after 2 mg/kg i.v., rats (FIG. 6C)), “present only in the retina and not in the blood vessels; also recorded: spread to the entire retina”. In addition, in series [1] (after i.v. administration to rats (discussion)), the “confinement to the choroidal vasculature” value is recorded as “mainly confined to the choroidal vasculature for up to one hour”. Further, the “bioavailability to the retina” value in series [1] (hypericin 2 mg/kg i.v. tail vein, rats) is listed as “bioavailable to the retina”. Also, in series [1] (rat, in vivo, iv), the “clearance from choroidal vessels and tissue accumulation” value was “beyond 2 hrs was cleared from the choroidal vessels and accumulated in the extravascular choroid and RPE”. The viability at 20 µM with ARPE-19 cells (read-out: percent cell viability, verteporfin 0.25 μg/ml plus hypericin 20 μM, 0.75 J/cm^2 >650 nm (FIG. 2A)) was 60%; with ARPE-19 cells (read-out: percent cell viability, verteporfin 0.5 μg/ml plus hypericin 20 μM, 0.75 J/cm^2 >650 nm (FIG. 2A)), 25%; with EH endothelial cells (read-out: EH cell viability, verteporfin 0.1 μg/ml plus hypericin 20 μM, 0.96 J/cm^2 (FIG. 3A)) it was 73%; in the series on EH endothelial cells (read-out: EH cell viability, verteporfin 0.25 μg/ml plus hypericin 20 μM, 0.96 J/cm^2 (FIG. 3A)), 81%; with EH endothelial cells (read-out: EH cell viability, verteporfin 0.5 μg/ml plus hypericin 20 μM, 0.96 J/cm^2 (FIG. 3A)) it was 49%. The cell viability preserved result with ARPE-19 cells (verteporfin 2 μg/ml, hypericin loaded before photosensitization, RPE or endothelial cells, cell line not specified) was “up to 46.8%”. Besides, the “EH cell protection from verteporfin-induced phototoxicity” value with EH endothelial cells (higher doses of light irradiation, 1.73 J/cm^2 (FIG. 3B)) is recorded as “also maintained at higher doses of light irradiation, yet the absolute levels of protection declined”. Besides, in series [2] (circulation), the “alpha half-life in the circulation” value is 1 to 2 h. The elimination half-life in series [2] (human, in vivo) was around 48 h. Moreover, the “gamma elimination half life from tissues” value in series [2] (in vivo) was “approximately 48 hrs”. Besides, the tissue biodistribution entry in series [3] is listed as “sequester in various tissues for many hours”.
verteporfin: the “time remaining in the intravascular compartment” value in series [4] was 30 min.
